Test results published in patent US9809521B2, “Cannabidinoid derivatives” (priority 2011, dated 2017).
Entries after “also recorded” stand apart in the source; their conditions may differ. Where two headings read alike, the source gives them in different places. Marks after values point to notes of the source that are not given here.

What was measured:
Id-1 = test: Quantitative Western analysis of Id-1 protein expression in MDA-MB231 cells; type: cell-based, human; conditions: 1.5 μM, two days
Protocol: Quantitative Western analysis of Id-1 Expression in MDA-MB231 cells with CBD, Δ^9-THC, or WIN 55,212-2. The ability of CBD to regulate the expression of key genes that control breast cancer cell aggressiveness and invasiveness was determined.
SAR Analysis of Id-1 expression in MDA-MB231 cells with (Abn)-CBD receptor, Abn-CBD, O-1602, CP55,940, THC, CBN, or CBD. In order to determine the structure activity relationship (“SAR”) between cannabinoids and the inhibition of Id-1, MDA-MB231 cells were treated for two days with multiple cannabinoid compounds and Id-1 protein levels were assessed.
Quantitative Western analysis of Id-1 expression in MDA-MB231 cells and U251 cells with CBD or O-1663 CBD analog. […] MDA-MB231 breast cancer cells and U251 GBM cells were treated with 1.0 μM of cannabinoid for two days and then analyzed for Id-1 protein expression by quantitative Western analysis.

MDA-MB231 cells [1] = test: MTT cell proliferation/viability assay
Text: (§1) The structure of O-1442 and O-1663 are almost identical with the exception of one R group. A smaller subset of the same analogs, including O-1442 and O-1663, were further screened for their ability to inhibit 4T1 breast cancer cell viability in anticipation of running in vivo experiments in immune competent mice (TABLE 5).
(§2) To directly test whether the O-1663 CBD analog could co-target two distinct cannabinoid antitumor pathways, the effects of CBD and the O-1663 CBD analog on cell viability with multiple antagonists were probed (FIG. 25). […] The ability of the O-1663 CBD analog and CBD to inhibit invasion was next compared (FIG. 25, panel C).

MDA-MB436 cells = test: MTT cell proliferation assay; conditions: read-out: IC50, antiproliferative, MDA-MB436
SF126 cells = test: MTT cell proliferation assay; conditions: read-out: IC50, SF126
4T1 cells = test: Cell viability assay; type: cell-based, mouse; conditions: Table 5; read-out: IC50, 4T1 cell viability
Text: as §1

MDA-MB231 cells [2] = test: Boyden chamber invasion assay; type: cell-based, human; conditions: 0.1, 1.0 or 1.5 μM
Protocol: Boyden chamber MDA-MB231 cell invasion studies with CBD, Δ^9-THC, or WIN 55,212-2. Invasion is an important step towards breast cancer cell metastasis. Therefore, the effects of several cannabinoids were tested on their ability to modulate the migratory and invasiveness activity of the most aggressive human breast cancer cell line, MDA-MB231, in a reconstituted basement membrane in a Boyden chamber.
Assays using Id-1 promoter reporter transfected MDA-MB231 cells with CBD. To determine if Id-1 represented a key mediator of CBD effects in highly aggressive breast cancer cells, Id-1 was constitutively expressed into MDA-MB231 cells (+)Id-1 as described in FIG. 2. The ectopic Id-1 gene, which is not under the control of the endogenous promoter, was introduced in the cells using the pLXSN retroviral vector. As a control, cells were infected with an empty pLXSN vector (−)Id-1.
Boyden chamber MDA-MB231 cell invasion studies with CBD and O-1663 CBD analog. Boyden chamber studies for invasion by MDA-MB231 or U251 cells were performed with either CBD or O-1663 CBD analog.
as §2

U251 cells [3] = test: Boyden chamber invasion assay; type: cell-based, human
Text: Boyden chamber U251 cell invasion studies with CBD and/or Δ^9-THC. In addition to uncontrolled cell growth, a hallmark phenotype of aggressive GBM tumor cells is their ability to migrate away for the primary tumor of origin and invade into neighboring CNS tissue.

ROS = ROS measurement in MDA-MB231 cells; type: cell-based, human; conditions: two days; approximate IC50 for CBD and THC
Text: In culture, CBD-induced generation of ROS is a primary mechanism that leads to inhibition of cell growth, invasion, and survival across multiple cancers. The generation of ROS by CBD leads to the inhibition of Id-1 expression in breast cancer cells. […] The ability of CBD and the O-1663 CBD analog to stimulate the production of ROS was next compared. […] The involvement of CB2 receptors in the productions of ROS produced by CBD and the O-1663 CBD analog was next investigated.

U251 cells [4] = test: Cell cycle analysis (PI staining, FACS); type: cell-based, human; conditions: THC 1.7 μM, CBD 0.4 μM
Protocol: Cell cycle analysis: U251 cells were grown in Petri dishes (100 mm×15 mm) and received drug treatments for 2 days. On the third day, the cells were harvested and centrifuged at 1200 rpm for 5 minutes. The pellet was washed 1× with PBS+1% BSA, and centrifuged again. The pellet was re-suspended in 0.5 ml of 2% paraformaldehyde (diluted with PBS) and left to fix overnight at room temperature. The next day the cells were pelleted and re-suspended in 0.5 ml 0.3% Triton in PBS and incubated for 5 minutes at room temperature. The cells were then washed 2 times with PBS+1% BSA. The cells were finally suspended in PBS (0.1% BSA) with 10 ug/ml Propidium Iodide and 100 μg/ml RNAse. The cells were incubated for 30 minutes at room temperature before being stored at 4° C. Cell cycle was measured using a FACS Calibur using Cell Quest Pro and Modfit software.
Apoptosis Studies using U251 cells with Δ^9-THC and/or CBD. […] Therefore, U251 cells were treated with THC and CBD alone or with the combination of the two, and cell cycle was analyzed using cell flow cytometery (FIG. 20). […] Additionally, there was an increase in the population of cells in the G2/M phase. These changes in G1, S and G2/M phase are hallmarks of cell cycle arrest.
(§3) Albeit, the magnitude of these effects was reduced compared to those observed with the combination treatment.

U251 cells [5] = test: Apoptosis (annexin staining, FACS); type: cell-based, human
Protocol: Apoptosis: Cells were grown in 6 well culture dishes and were treated with compounds of the disclosure every 24 hours for three days. […] The labeled cells were analyzed by flow cytometry. Cell Flow Cytometry in combination with PI and annexin staining was used to quantify the percentage of cells undergoing apoptosis in control and treatment groups. Percent control was calculated as annexin positive staining in treated cells/control cells×100. PI staining was used to distinguish necrotic cells from those undergoing apoptosis.
as §3
The concentrations of the individual cannabinoids (THC and CBD) were next increased in order to attempt to match levels of apoptosis produced by the combination treatment. The purpose of these experiments was to determine whether the compounds alone recruited similar pathways as compared to the combination of THC and CBD. […] However, THC alone could not produce the level of apoptosis observed with the combination treatment (FIG. 23, panel A and B).

caspase 3, 7, 9 and PARP = test: Western analysis of caspases and PARP in U251 cells; type: cell-based, human; conditions: THC 1.7 μM, CBD 0.4 μM, three days
Text: Caspases play a primary role in the regulation of programmed cell death.

U87 cells = test: MTT cell proliferation assay; conditions: read-out: IC50, U87; seven day treatment; 95% confidence limits in brackets
U251 cells [6] = test: MTT cell proliferation assay; conditions: read-out: IC50, U251; seven day treatment; 95% confidence limits in brackets
pERK, JNK, p38 MAPK = test: Western analysis of MAPK activity in U251 cells
[7] = Homo sapiens, MDA-MB-231, 72 h, read-out: IC50, antiproliferative, MDA-MB231
[8] = read-out: IC50, antiproliferative, MDA-MB231, treated for three days, MTT, confidence limits in brackets
[9] = treated for three days, MTT, confidence limits in brackets
[10] = seven day treatment, 95% confidence limits in brackets

C=C(C)[C@@H]1CCC(C)=C[C@H]1c1c(O)cc(O)cc1CCCCC [Abn-CBD]
inhibition of Id-1 (structure activity relationship) (Id-1): No inhibition of Id-1

CCCCCc1cc(O)c(C/C=C(\C)CCC=C(C)C)c(O)c1 [CBG, cannabigerol]
IC50 (MDA-MB231 cells [1]; [7]): 2300 nM
IC50 (MDA-MB436 cells; Homo sapiens, MDA-MB-436, 72 h): 2100 nM
IC50 (SF126 cells; Homo sapiens, SF-126, 72 h): 1600 nM

CCCCCc1cc(O)c2c(c1)OC(C)(C)c1ccc(C)cc1-2 [CBN, cannabinol]
inhibition of Id-1 (structure activity relationship) (Id-1): partially inhibit Id-1

CCCCCCC(C)(C)c1ccc([C@@H]2C[C@H](O)CC[C@H]2CCCO)c(O)c1 [CP 55, 940]
IC50 (MDA-MB231 cells [1]; [7]): 2500 nM
inhibition of Id-1 (structure activity relationship) (Id-1): less effective than CBD; also recorded: small inhibition of Id-1; also recorded: partially inhibit Id-1
IC50 (MDA-MB436 cells; Homo sapiens, MDA-MB-436, 72 h): 1300 nM
IC50 (SF126 cells; Homo sapiens, SF-126, 72 h): 3300 nM

C=C(C)[C@@H]1CCC(C)=C[C@H]1c1c(C)cc(O)cc1O [Compound 0-1602]
inhibition of Id-1 (structure activity relationship) (Id-1): No inhibition of Id-1

CCCCCCC(C)(C)c1cc(OC)c(C2(O)CCCC(C)C2)c(OC)c1 (stereo not drawn) [Compound O-2137]
Percent inhibition of cell viability, MDA-MB231 (MDA-MB231 cells [1]; at 5 μM): 45%^a
IC50 (4T1 cells): 3500 nM

CCCCCc1cc(O)c2c(c1)OC(C)(C)[C@@H]1CCC(C)=C[C@@H]21 [THC, Δ^9-tetrahydrocannabinol]
IC50 (MDA-MB231 cells [1]; read-out: IC50, MDA-MB231 cell viability, Table 5): 3000 nM
IC50 (MDA-MB231 cells [1]; [8]): 1200 nM
invasion of MDA-MB231 cells (MDA-MB231 cells [2]): significantly reduced the invasion
inhibition of Id-1 (structure activity relationship) (Id-1): had no activity against Id-1; also recorded: No inhibition of Id-1
invasiveness of U251 cells (U251 cells [3]): effectively inhibited the invasiveness of U251 cells
IC50 (U251 cells [3]; Boyden chamber, limits 49-150, read-out: predicted IC50, U251 cell invasiveness): 85 nM
IC50 (4T1 cells): 2300 nM
generation of ROS (ROS): no significant increase in ROS
cell cycle phases (U251 cells [4]): increases in the population of cells in G1 and G2/M phase and decreases in cells in S phase
block of apoptosis by CB2 antagonist SR144528 (U251 cells [5]; 0.5 μM SR144528, combination 1.7/0.4 μM, 2.5 μM THC, 2.0 μM CBD): partially blocked by the CB2 antagonist
block of apoptosis by α-tocopherol (U251 cells [5]; 20 μM α-tocopherol, combination 1.7/0.4 μM, 2.5 μM THC, 2.0 μM CBD): completely blocked by α-tocopherol
apoptosis (annexin) (U251 cells [5]; THC 1.7 μM, CBD 0.4 μM, three days): did not produce significant changes in apoptosis
caspase 3, 7, 9 and PARP (caspase 3, 7, 9 and PARP): Small increases in the activity of caspase 7, caspase 9 and PARP but not caspase 3
IC50 (MDA-MB436 cells; [9]): 2500 nM
IC50 (SF126 cells; [10]): 900 nM
IC50 (SF126 cells; three day treatment, Table 3): 2500 nM
IC50 (U87 cells): 1600 nM
IC50 (U251 cells [6]): 1100 nM
p-ERK, higher concentrations alone (pERK, JNK, p38 MAPK; 2.5 μM Δ^9-THC, 2.0 μM CBD, three days): had no effect on p-ERK activity
pERK (pERK, JNK, p38 MAPK; THC 1.7 μM, CBD 0.4 μM, two days): no changes in pERK were observed

Cc1c(C(=O)c2cccc3ccccc23)c2cccc3c2n1[C@H](CN1CCOCC1)CO3 [WIN 55, 212-2]
IC50 (MDA-MB231 cells [1]; [8]): 1700 nM
invasion of MDA-MB231 cells (MDA-MB231 cells [2]): significantly reduced the invasion
IC50 (MDA-MB436 cells; [9]): 2400 nM
IC50 (SF126 cells; [10]): 840 nM
IC50 (SF126 cells; three day treatment, Table 3): 1300 nM
IC50 (U87 cells): 770 nM
IC50 (U251 cells [6]): 1100 nM
